Assays:
[1] = system: NIH3T3^KITΔ559 cells; assay: Reversion of transformed morphologic phenotype of NIH3T3 transfectants expressing KIT (Δ559); assay type: cell-based, mouse; settings: 20 μM, 24 h, phase-contrast microscope
Description: FIG. 7. Effects of Cpd1 on cell lines expressing constitutively activated forms of Kit. […] Cells were treated with 20 μM Cpd1 and photographed 24 h later under a phase-contrast microscope (original magnification X 100). B): Inhibition of Kit (Δ559) autophosphorylation and expression in NIH3T3 transfectants. Cells were treated with Cpd 1 at the indicated concentrations, for 72 h. Cell lysates were immunoprecipitated with anti-Kit antibody and subjected to Western blotting with anti-p-Tyr or anti-Kit antibodies. C): Inhibition of expression and autocrine loop-activated autophosphorylation of c-Kit in the SCLC cell line N592. Cells were treated with Cpd 1 at the indicated concentrations, for 24 h. Whole cell lysates were subjected to Western blotting with anti-Kit antibody or with an antibody specifically recognizing the tyrosine phosphorylated/activated Kit (p-Kit).
The following human medullary thyroid carcinoma (MTC) cell lines were used in this study. The TT cell line derived from a MEN2A-associated MTC characterized by expression of the RET oncogene carrying the mutation C634W. The MZ-CRC-1 cell line derived from MEN2B-associated MTC characterized by expression of the RET oncogene carrying the mutation M918T. […]

[2] = system: NIH3T3^MEN2A(C634R) cells; assay: Antiproliferative assay (Coulter Counter), NIH3T3 MEN2A(C634R) versus parental NIH3T3; assay type: cell-based, murine; settings: 72 h, dose-response curves
Description: FIG. 1. Effects of Cpd 1 on NIH3T3^MEN2A(C634R) transfectants expressing exogenous RET/MEN2A(C634R). […] Cells were exposed to 6 μM Cpd1 for 24 h and then photographed under a phase-contrast microscope (original magnification ×100). B) Antiproliferative effect. NIH3T3^MEN2A(C634R) cells and the parental NIH3T3 cells were treated with increasing concentrations of the drug for 72 h and then counted with a Coulter Counter. […] C) Inhibition of Ret/MEN2A(C634R) autophosphorylation and expression. Cells were treated with solvent (−) or 10 μM Cpd1 (+), for the indicated times. Whole cell-lysates were prepared and subjected to SDS-PAGE and Western blotting with anti-pTyr antibody. After stripping, the filter was reblotted with anti-Ret antibody. Arrows indicate the partial and fully glycosilated forms of the Ret/MEN2A receptor.
Cells were trypsinized after 3 days (NIH3T3 and NIH3T3 M12A cells) or 7 days (MTC cells) of treatment with Cpd1 and counted by a Coulter Counter (Coulter Electronics, Luton U.K.). The concentrations able to inhibit cell proliferation by 50% (IC50) were calculated from the dose-response curves. Each experiment was performed in duplicate

[3] = biological target: T1, Ret/MEN2A(C634W) (Homo sapiens, UniProt P07949, C634W); assay: Ret autophosphorylation and expression in TT cells (Western blotting); assay type: cell-based; settings: 24 h
T1 construct: endogenous in cells; host or cells: TT (human medullary thyroid carcinoma)
T1 sequence (P07949 29-1114 C634W): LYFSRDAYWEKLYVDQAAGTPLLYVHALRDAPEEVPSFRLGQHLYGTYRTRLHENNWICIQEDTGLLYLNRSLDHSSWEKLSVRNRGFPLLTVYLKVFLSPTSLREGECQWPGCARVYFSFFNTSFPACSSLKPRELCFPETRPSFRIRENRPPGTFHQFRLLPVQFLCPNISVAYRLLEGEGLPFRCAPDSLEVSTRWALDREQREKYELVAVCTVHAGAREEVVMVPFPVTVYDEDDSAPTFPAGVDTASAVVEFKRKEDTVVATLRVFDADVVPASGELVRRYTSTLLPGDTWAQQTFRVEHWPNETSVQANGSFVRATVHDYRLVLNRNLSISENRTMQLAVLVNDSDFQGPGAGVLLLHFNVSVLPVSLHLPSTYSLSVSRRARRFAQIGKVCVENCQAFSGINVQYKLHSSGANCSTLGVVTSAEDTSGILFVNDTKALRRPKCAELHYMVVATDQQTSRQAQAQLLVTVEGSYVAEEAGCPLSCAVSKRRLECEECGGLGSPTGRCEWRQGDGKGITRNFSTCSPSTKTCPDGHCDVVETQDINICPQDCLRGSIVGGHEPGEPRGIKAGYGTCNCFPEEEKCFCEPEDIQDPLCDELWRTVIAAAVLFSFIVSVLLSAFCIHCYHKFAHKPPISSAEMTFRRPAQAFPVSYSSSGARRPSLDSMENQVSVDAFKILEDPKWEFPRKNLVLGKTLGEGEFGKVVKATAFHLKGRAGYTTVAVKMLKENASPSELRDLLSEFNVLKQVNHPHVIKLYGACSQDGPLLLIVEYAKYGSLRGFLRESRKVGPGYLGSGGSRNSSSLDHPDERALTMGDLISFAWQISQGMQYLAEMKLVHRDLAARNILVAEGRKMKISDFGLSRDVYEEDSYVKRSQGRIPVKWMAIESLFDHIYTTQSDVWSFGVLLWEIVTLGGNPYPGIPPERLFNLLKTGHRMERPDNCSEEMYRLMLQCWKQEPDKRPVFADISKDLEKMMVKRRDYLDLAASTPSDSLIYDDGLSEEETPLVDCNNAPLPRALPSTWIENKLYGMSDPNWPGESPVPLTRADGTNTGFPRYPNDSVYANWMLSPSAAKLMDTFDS
Description: FIG. 2. Effects of Cpd1 on human MTC cell lines harboring MEN2-associated RET mutants. A) Inhibition of Ret autophosphorylation. TT and MZ-CRC-1 cells, expressing respectively RET/MEN2A(C634W) and RET/MEN2B(M918T), were treated with the indicated concentrations of Cpd1, for 24 h. Control cells (C) received the solvent. Whole cell extracts were processed for Western blotting and probed with anti-pTyr and anti-Ret antibodies. […] B) Antiproliferative effect. TT and MZ-CRC-1 cells were treated with increasing concentrations of Cpd 1 for 7 days and then counted with a Coulter Counter.
(§1) The following human medullary thyroid carcinoma (MTC) cell lines were used in this study. The TT cell line derived from a MEN2A-associated MTC characterized by expression of the RET oncogene carrying the mutation C634W. […]
(§2) For whole-cell extract preparation, cells were lysed in sodium dodecyl sulfate (SDS) sample buffer (62.5 mM Tris-HCl (pH 6.8), 2% SDS) with 1 mM PMSF, 10 μg/ml pepstatin, 12.5 μg/ml leupeptin, 100 KIU aprotinin, 1 mM sodium orthovanadate, 1 mM sodium molybdate. Protein concentration was determined in appropriately diluted aliquots by the bicinchionic acid (BCA) method (Pierce, Rockford, Ill.), then samples were adjusted to a final concentration of 10% glycerol, 5% β-mercaptoethanol, 0.001% bromophenol blue. […]

[4] = system: NIH3T3 cells transformed with the RET/PTC1 oncogene; settings: cited from earlier work
[5] = biological target: T2, FGF-R1 (Mus musculus, UniProt P16092); assay: FGF-R1 autophosphorylation and expression in Swiss3T3 cells; assay type: cell-based; settings: 18 h
T2 construct: endogenous in cells; host or cells: Swiss3T3 (mouse fibroblasts)
T2 sequence (P16092 22-822): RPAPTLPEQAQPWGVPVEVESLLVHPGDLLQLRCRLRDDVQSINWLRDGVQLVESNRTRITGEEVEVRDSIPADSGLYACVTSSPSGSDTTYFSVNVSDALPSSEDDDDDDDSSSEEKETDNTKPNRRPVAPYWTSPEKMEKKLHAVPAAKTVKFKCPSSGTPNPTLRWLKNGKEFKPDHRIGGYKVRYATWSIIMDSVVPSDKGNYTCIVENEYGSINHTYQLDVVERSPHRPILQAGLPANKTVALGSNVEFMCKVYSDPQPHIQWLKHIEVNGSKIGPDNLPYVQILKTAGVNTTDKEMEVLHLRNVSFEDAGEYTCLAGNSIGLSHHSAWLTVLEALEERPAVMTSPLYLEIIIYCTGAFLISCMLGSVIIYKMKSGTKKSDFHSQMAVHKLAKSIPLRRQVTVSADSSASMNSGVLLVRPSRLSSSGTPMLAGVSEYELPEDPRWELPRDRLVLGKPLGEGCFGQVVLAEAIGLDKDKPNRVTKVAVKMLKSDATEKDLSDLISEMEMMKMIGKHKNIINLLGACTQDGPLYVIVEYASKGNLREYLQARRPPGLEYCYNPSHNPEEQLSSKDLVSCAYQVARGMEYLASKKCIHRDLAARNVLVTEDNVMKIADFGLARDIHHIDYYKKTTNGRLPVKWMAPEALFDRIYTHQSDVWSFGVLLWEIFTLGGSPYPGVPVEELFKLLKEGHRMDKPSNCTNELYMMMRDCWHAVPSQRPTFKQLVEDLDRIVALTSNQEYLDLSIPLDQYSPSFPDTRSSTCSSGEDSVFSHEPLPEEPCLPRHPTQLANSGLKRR
Description: FIG. 6. Inhibition of autophosphorylation and expression of FGF-R1 and FGF-R3 receptors in whole cells by Cpd1. A): Swiss3T3 cells were serum starved for 24 h and then treated with Cpd1 at the indicated concentrations, for 18 h. After stimulation with 100 ng/ml FGF for 5 min, whole cell lysates were prepared and subjected to Western blotting with anti-pTyr or anti-FGF-R1. Protein loading by anti-actin blot is shown. B): NIH3T3 transformed by the FGF-R3 mutant Y373C were treated with the indicated concentrations, for 72 h. Cell extracts were immunoprecipitated with anti-FGF-R3 and then subjected to Western blotting with anti p-Tyr or anti-FGF-R3.
as §1, §2

COc1cc2c(cc1OC)/C(=C\c1ccc(O)cc1)C(=O)N2 [Cpd 1, (E)-1,3-dihydro-5,6-dimethoxy-3-[(4-hydroxyphenyl)methylene]-2H-indol-2-one]
Transformed morphologic phenotype [1]: Reversion of the transformed morphologic phenotype | Antiproliferative effect, sensitivity relative to parental NIH3T3 cells [2]: higher sensitivity | Tyrosine phosphorylation of Ret receptor [3]: dose-dependent inhibition | Ret receptor expression ([3]; highest concentrations): reduced expression | Reverting the morphologic phenotype [4]: particularly effective | FGF-R1 tyrosine phosphorylation ([5]; Swiss3T3 cells serum starved, 100 ng/ml FGF 5 min): dose-dependent inhibition | FGF-R1 expression ([5]; Swiss3T3 cells): dose-dependent inhibition

Source: patent US20090130229A1, “Antitumor uses of compound” (Cell Therapeutics, Inc., priority 2002, published 2009)
